Some test systems named below: MDA-MB-435; K-562 leukemia; UO-31 renal; MALME-3M melanoma; NCI-H460 lung; HOP-62 NSCLC; OVCAR-5 ovarian; SK-MEL-2 melanoma; CCRF-CEM leukemia; MDA-MB-231 breast; A498 renal.
Assay in all cases: NCI anticancer screen, dose series, 48 h

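Step 1: Grow cells in 96-well plates. Step 2: Expose to compound for 48 hours at 5 concentrations. Step 3: Interpolate endpoints linearly; if unreached, use highest concentration. Definition used: TGI = concentration required for complete inhibition of growth.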

Consider `CC(=O)OC(/C=C/c1ccccc1)=C(OC(C)C)/C1=C(\c2ccccc2)SCCCSC1=O`, for which the TGI with MDA-MB-435, in the assay on K-562 leukemia, in the assay on UO-31 renal, with MALME-3M melanoma, with NCI-H460 lung and with HOP-62 NSCLC was > 100 µM in each case. The TGI in the assay on OVCAR-5 ovarian, in the assay with SK-MEL-2 melanoma, in the assay with CCRF-CEM leukemia, in the assay with MDA-MB-231 breast and in the assay with A498 renal was > 100 µM throughout.
Take `Nc1cc2[nH]c(=O)c(=O)[nH]c2cc1N`: the TGI in the assay with MDA-MB-435, in the assay with K-562 leukemia, with UO-31 renal, with MALME-3M melanoma, in the assay with NCI-H460 lung and in the assay with HOP-62 NSCLC was > 100 µM each time. In addition, the TGI with OVCAR-5 ovarian, in the assay with SK-MEL-2 melanoma, in the assay with CCRF-CEM leukemia, in the assay on MDA-MB-231 breast and in the assay on A498 renal was > 100 µM throughout.
Take `CON(C)C(=O)CNC(=O)OCC1c2ccccc2-c2ccccc21`: the TGI in the assay on MDA-MB-435, in the assay on K-562 leukemia, in the assay with UO-31 renal, in the assay on MALME-3M melanoma, in the assay with NCI-H460 lung and in the assay with HOP-62 NSCLC was > 100 µM in each case. Moreover, the TGI in the assay on OVCAR-5 ovarian, with SK-MEL-2 melanoma, with CCRF-CEM leukemia, in the assay with MDA-MB-231 breast and in the assay on A498 renal was > 100 µM in each case.
Turning to `O=C1CSC(c2cccc(Oc3ccccc3)c2)N1c1ccc(Cl)cc1` (configuration not stated), the TGI is 87.7 µM in the assay on MDA-MB-435; 69.9 µM in the assay with K-562 leukemia; > 100 µM with UO-31 renal; 56.7 µM in the assay with MALME-3M melanoma; 41.1 µM in the assay with NCI-H460 lung; > 100 µM with HOP-62 NSCLC. The TGI with OVCAR-5 ovarian is > 100 µM; in the assay with SK-MEL-2 melanoma it was 40.2 µM; in the assay with CCRF-CEM leukemia, > 100 µM; with MDA-MB-231 breast it was > 100 µM; in the assay with A498 renal, 47.6 µM.
Consider `NC(Cc1ccccc1)C(=O)N[C@H]1c2ccsc2/C(=N/O)[C@H]1O` (some centres not stated), for which the TGI in the assay with MDA-MB-435, in the assay with K-562 leukemia, in the assay with UO-31 renal, with MALME-3M melanoma, in the assay on NCI-H460 lung and in the assay on HOP-62 NSCLC was > 100 µM in each case. For the same compound, the TGI in the assay with OVCAR-5 ovarian, in the assay on SK-MEL-2 melanoma, in the assay with CCRF-CEM leukemia, in the assay on MDA-MB-231 breast and in the assay with A498 renal was > 100 µM in each case.
For `CCN(CC)C(=S)N/N=C(/C)c1cccc(/C(C)=N\NC(=S)N(CC)CC)n1`, the TGI in the assay on MDA-MB-435 is 14.9 µM; in the assay on K-562 leukemia, 11.6 µM; in the assay with UO-31 renal it was 7.94 µM; in the assay with MALME-3M melanoma, 7.41 µM; in the assay with NCI-H460 lung it was 6.36 µM; with HOP-62 NSCLC it was 6.76 µM. Also, the TGI in the assay with OVCAR-5 ovarian is 20.8 µM; in the assay on SK-MEL-2 melanoma, 20.3 µM; with CCRF-CEM leukemia it was > 100 µM; in the assay on MDA-MB-231 breast, 7.64 µM; in the assay with A498 renal it was 4.16 µM.
Regarding `CCOC(=O)N/N=C(/N)c1cccc([N+](=O)[O-])c1`, the TGI in the assay with MDA-MB-435, in the assay on K-562 leukemia, in the assay with UO-31 renal, in the assay on MALME-3M melanoma, in the assay on NCI-H460 lung and in the assay with HOP-62 NSCLC was > 100 µM throughout. The TGI in the assay with OVCAR-5 ovarian, in the assay with SK-MEL-2 melanoma, with CCRF-CEM leukemia, in the assay on MDA-MB-231 breast and in the assay on A498 renal was > 100 µM throughout.
With `C(=Nc1ccc(-c2nc3ccccc3[nH]2)cc1)c1cccs1`, the TGI in the assay on MDA-MB-435, in the assay with K-562 leukemia, with UO-31 renal, in the assay with MALME-3M melanoma, in the assay with NCI-H460 lung and in the assay on HOP-62 NSCLC was > 100 µM each time. Besides, the TGI in the assay on OVCAR-5 ovarian, with SK-MEL-2 melanoma, in the assay on CCRF-CEM leukemia, with MDA-MB-231 breast and in the assay on A498 renal was > 100 µM in each case.
On to `CC1(C)NC2C(=O)c3c([nH]c4ccccc34)[C@]3(C)CCC1CC23` (some centres not stated), for which the TGI in the assay on MDA-MB-435, in the assay with K-562 leukemia, in the assay on UO-31 renal, with MALME-3M melanoma, in the assay with NCI-H460 lung and with HOP-62 NSCLC was > 100 µM each time. The TGI with OVCAR-5 ovarian, in the assay with SK-MEL-2 melanoma, in the assay on CCRF-CEM leukemia, with MDA-MB-231 breast and in the assay on A498 renal was > 100 µM in each case.
Turning to `COc1cc(CNCc2cc(OC)c(OC)c(OC)c2)cc(OC)c1OC`, the TGI with MDA-MB-435 was > 10 µM; in the assay with K-562 leukemia it was > 7.36 µM; in the assay on UO-31 renal, > 10 µM; with MALME-3M melanoma it was > 10 µM; in the assay on NCI-H460 lung, > 10 µM; in the assay on HOP-62 NSCLC, > 10 µM. The TGI was > 10 µM in the assay on OVCAR-5 ovarian; > 10 µM with SK-MEL-2 melanoma; 5.86 µM in the assay on CCRF-CEM leukemia; > 10 µM in the assay with MDA-MB-231 breast; > 10 µM with A498 renal.
With `CC1=NNC(N)=N/C1=C\C(Sc1ccc(Cl)cc1)c1ccc([N+](=O)[O-])cc1` (configuration not stated), the TGI with MDA-MB-435, with K-562 leukemia, in the assay on UO-31 renal, in the assay with MALME-3M melanoma, in the assay with NCI-H460 lung and in the assay on HOP-62 NSCLC was > 100 µM throughout. For the same compound, the TGI in the assay with OVCAR-5 ovarian, in the assay on SK-MEL-2 melanoma, in the assay on CCRF-CEM leukemia, in the assay with MDA-MB-231 breast and in the assay on A498 renal was > 100 µM each time.
In the case of `COc1cccc(-c2ccc3c4c2O[C@H]2C(=O)CC[C@@]5(O)[C@@H](C3)N(CC3CC3)CC[C@]425)c1`, the TGI was 25.6 µM in the assay with MDA-MB-435; 28.6 µM in the assay with K-562 leukemia; 28.3 µM in the assay with UO-31 renal; 36.4 µM with MALME-3M melanoma; 50.7 µM in the assay with NCI-H460 lung; 35.4 µM in the assay with HOP-62 NSCLC. Moreover, the TGI in the assay on OVCAR-5 ovarian was found to be 35.7 µM; in the assay with SK-MEL-2 melanoma, 34.1 µM; in the assay with CCRF-CEM leukemia it was 27.9 µM; in the assay on MDA-MB-231 breast, 30.3 µM; in the assay on A498 renal, 34.1 µM.
Consider `COc1cc(/C=C2/C[C@H]3[C@@H]4CC=C5C[C@@H](O)CC[C@]5(C)[C@H]4CC[C@]3(C)NC2=O)cc(OC)c1OC`, for which the TGI in the assay on MDA-MB-435 is > 100 µM; with K-562 leukemia, > 100 µM; in the assay on UO-31 renal, 29.8 µM; in the assay on MALME-3M melanoma, 32.8 µM; with NCI-H460 lung, 25.9 µM; with HOP-62 NSCLC it was > 89.1 µM. Also, the TGI with OVCAR-5 ovarian is > 75.7 µM; in the assay with SK-MEL-2 melanoma it was > 62.9 µM; in the assay on CCRF-CEM leukemia, > 100 µM; in the assay with MDA-MB-231 breast, > 55.7 µM; with A498 renal, 55 µM.
As to `COC1=C(OC)C(=O)C(Cc2c(C)nc3sc(C)cn23)=C(C)C1=O`, the TGI with MDA-MB-435 was found to be 33.6 µM; in the assay with K-562 leukemia, 39 µM; with UO-31 renal it was 31.6 µM; in the assay with MALME-3M melanoma it was 37.3 µM; in the assay with NCI-H460 lung, 54.3 µM; in the assay with HOP-62 NSCLC, 35.7 µM. For the same compound, the TGI in the assay on OVCAR-5 ovarian is 40.7 µM; in the assay on SK-MEL-2 melanoma, 34.7 µM; in the assay on CCRF-CEM leukemia it was 53.7 µM; in the assay on MDA-MB-231 breast it was 30.2 µM; in the assay on A498 renal, > 100 µM.
As for `COc1cc(Cn2c3c(c4cc(O)ccc42)Cc2ccccc2C3=O)cc(OC)c1`, the TGI with MDA-MB-435, with K-562 leukemia, in the assay on UO-31 renal, in the assay with MALME-3M melanoma, in the assay on NCI-H460 lung and in the assay with HOP-62 NSCLC was > 100 µM throughout. In addition, the TGI with OVCAR-5 ovarian was 56.2 µM; in the assay with SK-MEL-2 melanoma, > 100 µM; in the assay on CCRF-CEM leukemia, 86 µM; in the assay with MDA-MB-231 breast, > 100 µM; in the assay on A498 renal, > 100 µM.
Turning to `CCOCc1nc2c(OC)cc(-c3nc4ccc(N5CCN(C)CC5)cc4[nH]3)c(OC)c2[nH]1`, the TGI in the assay with MDA-MB-435 is 45.8 µM; in the assay with K-562 leukemia it was > 100 µM; in the assay with UO-31 renal, 41.8 µM; in the assay on MALME-3M melanoma, 33.5 µM; with NCI-H460 lung, 65.1 µM; in the assay on HOP-62 NSCLC it was 62.8 µM. The TGI with OVCAR-5 ovarian is > 100 µM; with SK-MEL-2 melanoma, 40.6 µM; in the assay with CCRF-CEM leukemia, 34 µM; with MDA-MB-231 breast, 81.9 µM; in the assay on A498 renal, > 100 µM.
Take `C[N+](C)(C)CC1CCCCCCCCCCC1=O` (configuration not stated): the TGI with MDA-MB-435, with K-562 leukemia, in the assay with UO-31 renal, in the assay with MALME-3M melanoma, with NCI-H460 lung and in the assay on HOP-62 NSCLC was > 100 µM throughout. In addition, the TGI in the assay on OVCAR-5 ovarian, in the assay with SK-MEL-2 melanoma, in the assay on CCRF-CEM leukemia, with MDA-MB-231 breast and in the assay with A498 renal was > 100 µM in each case.

The values above are taken from PubChem BioAssay (NCI).
